From PubChem BioAssay AID328 (DTP/NCI, 2004)
Where “and” joins values, the source holds several entries; their conditions need not be identical. Identical values can stand only once. Inconclusive results and toxic doses are left out.

Test system: BDF1 mice, P388 leukemia ip, median survival T/C
Assay: NCI In Vivo Anticancer Drug Screen. Data for tumor model P388 Leukemia (intraperitoneal) in B6D2F1 (BDF1) mice
Conditions: endpoint: median survival time, higher = longer survival
Procedure, shortened: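 Vehicle-dosed animals serve as the reference; survival of compound-dosed, tumour-implanted mice is divided by it.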

[1] = dose: 100.0 mg/kg/injection, schedule: Q01DX009 (ip), vehicle: saline with Tween-80
[2] = dose: 200.0 mg/kg/injection, schedule: Q01DX009 (ip), vehicle: saline with Tween-80
[3] = dose: 400.0 mg/kg/injection, schedule: Q01DX009 (ip), vehicle: saline with Tween-80
[4] = dose: 50.0 mg/kg/injection, schedule: Q01DX009 (ip), vehicle: saline with Tween-80
[5] = dose: 100.0 mg/kg/injection, schedule: Q04DX003 (ip), vehicle: saline
[6] = dose: 25.0 mg/kg/injection, schedule: Q01DX009 (ip), vehicle: saline
[7] = dose: 50.0 mg/kg/injection, schedule: Q01DX009 (ip), vehicle: saline
[8] = dose: 100.0 mg/kg/injection, schedule: Q04DX002 (ip), vehicle: saline with Tween-80
[9] = dose: 200.0 mg/kg/injection, schedule: Q04DX002 (ip), vehicle: saline with Tween-80
[10] = dose: 100.0 mg/kg/injection, schedule: Q04DX003 (ip), vehicle: saline with Tween-80
[11] = dose: 200.0 mg/kg/injection, schedule: Q04DX003 (ip), vehicle: saline with Tween-80

SMILES: CC(=O)OC1CC(OC2C(O)CC(OC3C(O)CC(OC4CCC5(C)C(CCC6C5CCC5(C)C(C7=CC(=O)OC7)C(O)CC65O)C4)OC3C)OC2C)OC(C)C1OC1OC(CO)C(O)C(O)C1O (stereo not drawn)
- T/C (dose: 12.5 mg/kg/injection, schedule: Q01DX010 (ip), vehicle: carboxymethylcellulose (CMC)): 109 % of control
- T/C (dose: 12.5 mg/kg/injection, schedule: Q04DX003 (ip), vehicle: Klucel (hydroxypropylcellulose) (HPC)): 110 % of control
- T/C (dose: 25.0 mg/kg/injection, schedule: Q01DX010 (ip), vehicle: carboxymethylcellulose (CMC)): 95 % of control
- T/C (dose: 25.0 mg/kg/injection, schedule: Q04DX003 (ip), vehicle: Klucel (hydroxypropylcellulose) (HPC)): 120 % of control

SMILES: CCOC(=O)c1ccc(NS(=O)(=O)c2ccc(C)cc2)cc1
- T/C [1]: 106 % of control
- T/C [2]: 106 % of control
- T/C [3]: 88 % of control

SMILES: CC(=O)N(/N=C/c1cc(C=O)n(-c2ccccc2)n1)c1ccccc1
- T/C [4]: 86 % of control
- T/C [1]: 90 % of control
- T/C [2]: 105 % of control

SMILES: N#Cc1ccc(-c2ccc(C#N)cc2Br)c(Br)c1
- T/C (dose: 22.0 mg/kg/injection, schedule: Q01DX009 (ip), vehicle: Klucel (hydroxypropylcellulose) (HPC)): 92 % of control
- T/C (dose: 25.0 mg/kg/injection, schedule: Q01DX009 (ip), vehicle: Klucel (hydroxypropylcellulose) (HPC)): 110 % of control
- T/C (dose: 33.0 mg/kg/injection, schedule: Q01DX009 (ip), vehicle: Klucel (hydroxypropylcellulose) (HPC)): 95 % of control
- T/C (dose: 50.0 mg/kg/injection, schedule: Q01DX009 (ip), vehicle: Klucel (hydroxypropylcellulose) (HPC)): 100 % of control
- T/C (dose: 75.0 mg/kg/injection, schedule: Q01DX009 (ip), vehicle: Klucel (hydroxypropylcellulose) (HPC)): 89 % of control
- T/C (dose: 100.0 mg/kg/injection, schedule: Q01DX009 (ip), vehicle: Klucel (hydroxypropylcellulose) (HPC)): 88 % of control and 110 % of control
- T/C (dose: 100.0 mg/kg/injection, schedule: Q04DX003 (ip), vehicle: Klucel (hydroxypropylcellulose) (HPC)): 95 % of control
- T/C (dose: 200.0 mg/kg/injection, schedule: Q04DX003 (ip), vehicle: Klucel (hydroxypropylcellulose) (HPC)): 100 % of control
- T/C (dose: 400.0 mg/kg/injection, schedule: Q04DX003 (ip), vehicle: Klucel (hydroxypropylcellulose) (HPC)): 100 % of control

SMILES: N#CCCN(C(=O)Nc1ccc(Cl)c(Cl)c1)C1CCCCC1
- T/C [4]: 124 % of control
- T/C [1]: 104 % of control
- T/C [2]: 94 % of control
- T/C [3]: 97 % of control

SMILES: CC1(C(N)=O)OCCO1
- T/C [5]: 100 % of control
- T/C (dose: 200.0 mg/kg/injection, schedule: Q04DX003 (ip), vehicle: saline): 95 % of control
- T/C (dose: 400.0 mg/kg/injection, schedule: Q04DX003 (ip), vehicle: saline): 95 % of control

SMILES: NNC(=O)c1ccccn1
- T/C [6]: 92 % of control
- T/C [7]: 100 % of control
- T/C (dose: 100.0 mg/kg/injection, schedule: Q01DX009 (ip), vehicle: saline): 100 % of control
- T/C [5]: 88 % of control

SMILES: Cc1nc(N2CC2)nc(N2CC2)c1[N+](=O)[O-]
- T/C (dose: 0.62 mg/kg/injection, schedule: Q01DX010 (ip), vehicle: saline): 122 % of control
- T/C (dose: 0.63 mg/kg/injection, schedule: Q01DX010 (ip), vehicle: saline): 100 % of control

SMILES: CCOC(=O)Nc1cc2c(c(N)n1)N=C(CN(C)c1ccc(OC)cc1)CN2
- T/C (dose: 12.5 mg/kg/injection, schedule: Q01DX001 (ip), vehicle: Klucel (hydroxypropylcellulose) (HPC)): 175 % of control
- T/C (dose: 25.0 mg/kg/injection, schedule: Q01DX001 (ip), vehicle: Klucel (hydroxypropylcellulose) (HPC)): 240 % of control
- T/C (dose: 50.0 mg/kg/injection, schedule: Q01DX001 (ip), vehicle: Klucel (hydroxypropylcellulose) (HPC)): 277 % of control

SMILES: CCn1c2ccc(N)cc2c2c3[nH]c(=O)c4cccn4c3ccc21
- T/C [8]: 100 % of control
- T/C [9]: 92 % of control

SMILES: O=S(=O)(c1ccccc1)N1C2=CCCC3CCCCC23c2ccccc21 (stereo not drawn)
- T/C [8]: 95 % of control
- T/C [9]: 92 % of control
- T/C (dose: 400.0 mg/kg/injection, schedule: Q04DX002 (ip), vehicle: saline with Tween-80): 92 % of control

SMILES: COc1cccc2c1C(=O)c1c(O)c3c(c(O)c1C2=O)C[C@@](O)(/C(C)=N\NC(=O)CO)C[C@@H]3OC1CC(N)C(O)C(C)O1 (stereo partly drawn)
- T/C (dose: 0.27 mg/kg/injection, schedule: Q01DX009 (ip), vehicle: saline): 172 % of control
- T/C (dose: 0.4 mg/kg/injection, schedule: Q01DX009 (ip), vehicle: saline): 183 % of control
- T/C (dose: 0.6 mg/kg/injection, schedule: Q01DX009 (ip), vehicle: saline): 190 % of control
- T/C (dose: 0.9 mg/kg/injection, schedule: Q01DX009 (ip), vehicle: saline): 186 % of control
- T/C (dose: 1.87 mg/kg/injection, schedule: Q01DX009 (ip), vehicle: saline): 248 % of control
- T/C (dose: 2.2 mg/kg/injection, schedule: Q04DX003 (ip), vehicle: saline): 159 % of control and 172 % of control
- T/C (dose: 3.3 mg/kg/injection, schedule: Q04DX003 (ip), vehicle: saline): 154 % of control and 213 % of control
- T/C (dose: 3.75 mg/kg/injection, schedule: Q01DX009 (ip), vehicle: saline): 182 % of control
- T/C (dose: 5.0 mg/kg/injection, schedule: Q04DX003 (ip), vehicle: saline): 163 % of control and 209 % of control
- T/C (dose: 7.5 mg/kg/injection, schedule: Q01DX009 (ip), vehicle: saline): 115 % of control
- T/C (dose: 7.5 mg/kg/injection, schedule: Q04DX003 (ip), vehicle: saline): 150 % of control and 200 % of control
- T/C (dose: 29.0 micrograms/kg/injection, schedule: Q01DX009 (ip), vehicle: saline): 110 % of control
- T/C (dose: 44.0 micrograms/kg/injection, schedule: Q01DX009 (ip), vehicle: saline): 116 % of control

SMILES: O=[N+]([O-])c1ccc(-c2nc(Cl)c3c(n2)CCCC3)o1
- T/C [4]: 95 % of control
- T/C [1]: 98 % of control
- T/C [2]: 97 % of control

SMILES: CCCOP(=S)(N1CC1(C)C)N1CC1(C)C (stereo not drawn)
- T/C (dose: 66.0 mg/kg/injection, schedule: Q01DX009 (ip), vehicle: saline with Tween-80): 168 % of control
- T/C [1]: 209 % of control and 222 % of control
- T/C [10]: 116 % of control
- T/C [11]: 108 % of control

SMILES: Clc1ccc2nc(CBr)cnc2c1
- T/C (dose: 12.5 mg/kg/injection, schedule: Q01DX009 (ip), vehicle: other): 104 % of control
- T/C (dose: 12.5 mg/kg/injection, schedule: Q01DX009 (ip), vehicle: saline): 120 % of control
- T/C (dose: 25.0 mg/kg/injection, schedule: Q01DX009 (ip), vehicle: other): 109 % of control
- T/C [6]: 120 % of control
- T/C (dose: 25.0 mg/kg/injection, schedule: Q04DX003 (ip), vehicle: saline with Tween-80): 95 % of control
- T/C (dose: 35.0 mg/kg/injection, schedule: Q04DX003 (ip), vehicle: saline): 108 % of control
- T/C (dose: 50.0 mg/kg/injection, schedule: Q01DX009 (ip), vehicle: other): 118 % of control
- T/C [4]: 118 % of control
- T/C [7]: 110 % of control
- T/C (dose: 50.0 mg/kg/injection, schedule: Q04DX003 (ip), vehicle: saline with Tween-80): 109 % of control
- T/C (dose: 55.0 mg/kg/injection, schedule: Q04DX003 (ip), vehicle: saline): 116 % of control
- T/C (dose: 80.0 mg/kg/injection, schedule: Q04DX003 (ip), vehicle: saline): 116 % of control
- T/C [10]: 109 % of control
- T/C [11]: 103 % of control

SMILES: C=C[C@@](C)(O)CC/C=C(/C)CCC=C(C)C
- T/C [1]: 109 % of control

SMILES: CCC(O)C(C)C(O)C(C)C(O)C(C)C(O)C(C)C1OC(=O)CC(O)C(C)C(O)CC(O)CCCC(O)CCC(C)C(O)C2(O)C(=O)CC(CC(O)CC(O)CC(O)CC(O)CCCC(O)C1O)OC2=O (stereo not drawn)
- T/C (dose: 2.5 mg/kg/injection, schedule: Q01DX009 (ip), vehicle: saline): 92 % of control
- T/C (dose: 5.0 mg/kg/injection, schedule: Q01DX009 (ip), vehicle: saline): 109 % of control
- T/C (dose: 10.0 mg/kg/injection, schedule: Q01DX009 (ip), vehicle: saline): 109 % of control
